Measurements reported in patent US8192962B2, “Processes for detecting toxic substances” (Daikin Industries, Ltd., priority 2001, dated 2012).

Test system: Metabolism protein genes
Test: DNA chip mRNA expression in yeast, metabolism protein genes (Table 7)
Assay type: cell-based, Saccharomyces cerevisiae S288C
Method in brief: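 Ratios compare mRNA levels in stressed and control S. cerevisiae. Each toxicant was applied for two hours to log-phase cultures at 25° C. at a sub-lethal, growth-inhibiting level; fluorescent cDNA (Cy3- or Cy5-dUTP) was hybridized to a genome-wide yeast chip for over 12 h at 65° C.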

Na2As [(1)]
1.8: The level of expressed mRNA in the presence of chemical substance/The level of expressed mRNA in the absence of chemical substance (yeast gene YBR183W) | The level of expressed mRNA in the presence of chemical substance/The level of expressed mRNA in the absence of chemical substance (yeast gene YHR176W)
0.9: level of expressed mRNA in the presence/in the absence of chemical substance (yeast gene YBR003W) | level of expressed mRNA in the presence/in the absence of chemical substance (yeast gene YER120W) | level of expressed mRNA in the presence/in the absence of chemical substance (yeast gene YGL115W) | level of expressed mRNA in the presence/in the absence of chemical substance (yeast gene YGL205W) | The level of expressed mRNA in the presence of chemical substance/The level of expressed mRNA in the absence of chemical substance (yeast gene YGR194C) | level of expressed mRNA in the presence/in the absence of chemical substance (yeast gene YGR288W) | The level of expressed mRNA in the presence of chemical substance/The level of expressed mRNA in the absence of chemical substance (yeast gene YJL088W) | level of expressed mRNA in the presence/in the absence of chemical substance (yeast gene YJL167W)
20.9: The level of expressed mRNA in the presence of chemical substance/The level of expressed mRNA in the absence of chemical substance (yeast gene YFL057C)
1.1: The level of expressed mRNA in the presence of chemical substance/The level of expressed mRNA in the absence of chemical substance (yeast gene YAL012W) | level of expressed mRNA in the presence/in the absence of chemical substance (yeast gene YDR483W) | The level of expressed mRNA in the presence of chemical substance/The level of expressed mRNA in the absence of chemical substance (yeast gene YER096W) | The level of expressed mRNA in the presence of chemical substance/The level of expressed mRNA in the absence of chemical substance (yeast gene YHR174W) | level of expressed mRNA in the presence/in the absence of chemical substance (yeast gene YJR077C)
19.0: The level of expressed mRNA in the presence of chemical substance/The level of expressed mRNA in the absence of chemical substance (yeast gene YFL056C)
1.5: level of expressed mRNA in the presence/in the absence of chemical substance (yeast gene YGR096W) | The level of expressed mRNA in the presence of chemical substance/The level of expressed mRNA in the absence of chemical substance (yeast gene YIL107C)
1.7: level of expressed mRNA in the presence/in the absence of chemical substance (yeast gene YDR073W) | The level of expressed mRNA in the presence of chemical substance/The level of expressed mRNA in the absence of chemical substance (yeast gene YIL045W)
0.5: The level of expressed mRNA in the presence of chemical substance/The level of expressed mRNA in the absence of chemical substance (yeast gene YBR023C) | The level of expressed mRNA in the presence of chemical substance/The level of expressed mRNA in the absence of chemical substance (yeast gene YCR048W) | The level of expressed mRNA in the presence of chemical substance/The level of expressed mRNA in the absence of chemical substance (yeast gene YFL031W) | The level of expressed mRNA in the presence of chemical substance/The level of expressed mRNA in the absence of chemical substance (yeast gene YGL022W) | level of expressed mRNA in the presence/in the absence of chemical substance (yeast gene YGR204W)
1.0: The level of expressed mRNA in the presence of chemical substance/The level of expressed mRNA in the absence of chemical substance (yeast gene YAL038W) | level of expressed mRNA in the presence/in the absence of chemical substance (yeast gene YBR020W) | level of expressed mRNA in the presence/in the absence of chemical substance (yeast gene YDR400W) | level of expressed mRNA in the presence/in the absence of chemical substance (yeast gene YDR408C) | level of expressed mRNA in the presence/in the absence of chemical substance (yeast gene YGL012W) | The level of expressed mRNA in the presence of chemical substance/The level of expressed mRNA in the absence of chemical substance (yeast gene YGR037C) | level of expressed mRNA in the presence/in the absence of chemical substance (yeast gene YIL006W) | The level of expressed mRNA in the presence of chemical substance/The level of expressed mRNA in the absence of chemical substance (yeast gene YIL155C) | The level of expressed mRNA in the presence of chemical substance/The level of expressed mRNA in the absence of chemical substance (yeast gene YIR036C) | level of expressed mRNA in the presence/in the absence of chemical substance (yeast gene YJL121C)
3.4: The level of expressed mRNA in the presence of chemical substance/The level of expressed mRNA in the absence of chemical substance (yeast gene YFL014W)
3.0: The level of expressed mRNA in the presence of chemical substance/The level of expressed mRNA in the absence of chemical substance (yeast gene YBR256C)
1.2: level of expressed mRNA in the presence/in the absence of chemical substance (yeast gene YDR123C) | The level of expressed mRNA in the presence of chemical substance/The level of expressed mRNA in the absence of chemical substance (yeast gene YDR502C) | The level of expressed mRNA in the presence of chemical substance/The level of expressed mRNA in the absence of chemical substance (yeast gene YDR516C) | level of expressed mRNA in the presence/in the absence of chemical substance (yeast gene YFL011W) | The level of expressed mRNA in the presence of chemical substance/The level of expressed mRNA in the absence of chemical substance (yeast gene YGL209W) | The level of expressed mRNA in the presence of chemical substance/The level of expressed mRNA in the absence of chemical substance (yeast gene YGR256W) | The level of expressed mRNA in the presence of chemical substance/The level of expressed mRNA in the absence of chemical substance (yeast gene YIR034C) | The level of expressed mRNA in the presence of chemical substance/The level of expressed mRNA in the absence of chemical substance (yeast gene YJL068C) | The level of expressed mRNA in the presence of chemical substance/The level of expressed mRNA in the absence of chemical substance (yeast gene YJL099W) | The level of expressed mRNA in the presence of chemical substance/The level of expressed mRNA in the absence of chemical substance (yeast gene YJL219W)
0.7: The level of expressed mRNA in the presence of chemical substance/The level of expressed mRNA in the absence of chemical substance (yeast gene YBR029C) | The level of expressed mRNA in the presence of chemical substance/The level of expressed mRNA in the absence of chemical substance (yeast gene YDR497C) | level of expressed mRNA in the presence/in the absence of chemical substance (yeast gene YEL063C) | level of expressed mRNA in the presence/in the absence of chemical substance (yeast gene YER015W) | level of expressed mRNA in the presence/in the absence of chemical substance (yeast gene YHR123W) | The level of expressed mRNA in the presence of chemical substance/The level of expressed mRNA in the absence of chemical substance (yeast gene YHR137W) | The level of expressed mRNA in the presence of chemical substance/The level of expressed mRNA in the absence of chemical substance (yeast gene YJR148W)
2.7: The level of expressed mRNA in the presence of chemical substance/The level of expressed mRNA in the absence of chemical substance (yeast gene YJR137C)
2.0: level of expressed mRNA in the presence/in the absence of chemical substance (yeast gene YDR178W)
1.3: level of expressed mRNA in the presence/in the absence of chemical substance (yeast gene YBR011C) | The level of expressed mRNA in the presence of chemical substance/The level of expressed mRNA in the absence of chemical substance (yeast gene YER069W) | The level of expressed mRNA in the presence of chemical substance/The level of expressed mRNA in the absence of chemical substance (yeast gene YFR047C) | The level of expressed mRNA in the presence of chemical substance/The level of expressed mRNA in the absence of chemical substance (yeast gene YGL248W) | The level of expressed mRNA in the presence of chemical substance/The level of expressed mRNA in the absence of chemical substance (yeast gene YGR282C) | level of expressed mRNA in the presence/in the absence of chemical substance (yeast gene YHR210C)
0.8: level of expressed mRNA in the presence/in the absence of chemical substance (yeast gene YCR034W) | level of expressed mRNA in the presence/in the absence of chemical substance (yeast gene YDR284C) | level of expressed mRNA in the presence/in the absence of chemical substance (yeast gene YDR345C) | The level of expressed mRNA in the presence of chemical substance/The level of expressed mRNA in the absence of chemical substance (yeast gene YDR380W) | The level of expressed mRNA in the presence of chemical substance/The level of expressed mRNA in the absence of chemical substance (yeast gene YER026C) | The level of expressed mRNA in the presence of chemical substance/The level of expressed mRNA in the absence of chemical substance (yeast gene YER178W) | level of expressed mRNA in the presence/in the absence of chemical substance (yeast gene YGR191W) | The level of expressed mRNA in the presence of chemical substance/The level of expressed mRNA in the absence of chemical substance (yeast gene YIL154C) | The level of expressed mRNA in the presence of chemical substance/The level of expressed mRNA in the absence of chemical substance (yeast gene YJL172W) | level of expressed mRNA in the presence/in the absence of chemical substance (yeast gene YJL216C)
1.6: level of expressed mRNA in the presence/in the absence of chemical substance (yeast gene YCR010C) | The level of expressed mRNA in the presence of chemical substance/The level of expressed mRNA in the absence of chemical substance (yeast gene YCR098C) | level of expressed mRNA in the presence/in the absence of chemical substance (yeast gene YDR050C) | level of expressed mRNA in the presence/in the absence of chemical substance (yeast gene YDR277C) | The level of expressed mRNA in the presence of chemical substance/The level of expressed mRNA in the absence of chemical substance (yeast gene YER053C) | level of expressed mRNA in the presence/in the absence of chemical substance (yeast gene YER081W) | The level of expressed mRNA in the presence of chemical substance/The level of expressed mRNA in the absence of chemical substance (yeast gene YFL030W) | The level of expressed mRNA in the presence of chemical substance/The level of expressed mRNA in the absence of chemical substance (yeast gene YJL031C)
1.4: The level of expressed mRNA in the presence of chemical substance/The level of expressed mRNA in the absence of chemical substance (yeast gene YDR019C) | The level of expressed mRNA in the presence of chemical substance/The level of expressed mRNA in the absence of chemical substance (yeast gene YHR111W)
2.5: The level of expressed mRNA in the presence of chemical substance/The level of expressed mRNA in the absence of chemical substance (yeast gene YGR055W)
0.6: The level of expressed mRNA in the presence of chemical substance/The level of expressed mRNA in the absence of chemical substance (yeast gene YBR222C) | The level of expressed mRNA in the presence of chemical substance/The level of expressed mRNA in the absence of chemical substance (yeast gene YCL009C) | The level of expressed mRNA in the presence of chemical substance/The level of expressed mRNA in the absence of chemical substance (yeast gene YCL064C) | The level of expressed mRNA in the presence of chemical substance/The level of expressed mRNA in the absence of chemical substance (yeast gene YGL126W) | level of expressed mRNA in the presence/in the absence of chemical substance (yeast gene YHR025W) | level of expressed mRNA in the presence/in the absence of chemical substance (yeast gene YJR143C)
